Laboratory results taken from patent US20240376091A1, “THIADIAZOLEAMIDE DERIVATIVES AND THEIR APPLICATIONS” (ZHEJIANG UNIVERSITY, priority 2021, published 2024).

Target: T1, AR (Homo sapiens, UniProt P10275, T878A)
T1 construct: into the androgen-dependent PCa cells (LNCaP); endogenous in cells; host or cells: LNCaP-ARR2PB-eGFP
T1 sequence (P10275 1-920 T878A): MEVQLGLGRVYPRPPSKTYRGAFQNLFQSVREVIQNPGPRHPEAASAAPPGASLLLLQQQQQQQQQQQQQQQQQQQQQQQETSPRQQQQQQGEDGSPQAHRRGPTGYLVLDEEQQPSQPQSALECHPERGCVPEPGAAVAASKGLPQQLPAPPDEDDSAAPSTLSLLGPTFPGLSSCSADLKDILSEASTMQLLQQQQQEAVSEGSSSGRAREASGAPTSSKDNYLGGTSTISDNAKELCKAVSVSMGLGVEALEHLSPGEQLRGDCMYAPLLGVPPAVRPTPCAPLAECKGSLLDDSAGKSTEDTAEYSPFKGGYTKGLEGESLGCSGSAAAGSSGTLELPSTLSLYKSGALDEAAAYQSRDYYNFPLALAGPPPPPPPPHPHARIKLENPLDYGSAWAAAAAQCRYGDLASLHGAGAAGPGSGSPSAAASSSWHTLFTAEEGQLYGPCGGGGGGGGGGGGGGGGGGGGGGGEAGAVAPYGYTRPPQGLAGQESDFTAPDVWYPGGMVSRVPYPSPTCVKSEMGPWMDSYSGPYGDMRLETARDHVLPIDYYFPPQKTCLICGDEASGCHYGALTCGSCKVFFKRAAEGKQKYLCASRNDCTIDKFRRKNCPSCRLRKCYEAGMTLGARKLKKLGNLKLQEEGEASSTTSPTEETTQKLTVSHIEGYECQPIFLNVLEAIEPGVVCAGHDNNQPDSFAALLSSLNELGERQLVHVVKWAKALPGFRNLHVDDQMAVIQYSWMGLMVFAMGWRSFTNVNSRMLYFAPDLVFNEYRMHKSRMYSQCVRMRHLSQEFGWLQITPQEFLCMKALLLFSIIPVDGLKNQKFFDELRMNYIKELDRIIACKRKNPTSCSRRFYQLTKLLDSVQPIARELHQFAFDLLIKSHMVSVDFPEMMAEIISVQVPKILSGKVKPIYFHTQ
Test: AR transcriptional activity, LNCaP-ARR2PB-eGFP reporter cells
Format: cell-based
Details: read-out: IC50 AR transcriptional activities
Source text: Detection principles: We conducted a stable transfection of promoter ARR2PB known for its strong AR responsiveness, into the androgen-dependent PCa cells (LNCaP). The expression of enhanced green fluorescent protein (eGFP) is depending on the degree of activation of AR. Therefore, LNCaP-ARR2PB-eGFP cell line could quantitatively determine the AR antagonistic activities of the compounds by evaluating the expression of eGFP.

Row | IC50 [µM] | Compound
1 | 2.92 | O=C(Nc1nc(CN2CCCC2)ns1)c1cc(-c2cccc(OC(F)(F)F)c2)oc1C(F)(F)F [Compound E-40, N-(3-(pyrrolidin-1-ylmethyl)-1,2,4-thiadiazol-5-yl)-5-(3-(trifluoromethoxy)phenyl)-2-(trifluoromethyl)furan-3-carboxamide]
2 | 25 | CC(=O)Cc1nsc(NC(=O)c2csc(-c3cccc(C(F)(F)F)c3)c2)n1 [Compound D-1, N-(3-(2-oxopropyl)-1,2,4-thiadiazol-5-yl)-5-(3-(trifluoromethyl)phenyl)thiophene-3-carboxamide]
3 | 0.55 | CC(=O)Cc1nsc(NC(=O)c2cc(-c3cccc(OC(F)(F)F)c3)oc2C(F)(F)F)n1 [Compound E-4, N-(3-(2-oxopropyl)-1,2,4-thiadiazol-5-yl)-5-(3-(trifluoromethoxy)phenyl)-2-(trifluoro-methyl)furan-3-carboxamide]
4 | 21.5 | O=C(Nc1nc(CCl)ns1)c1csc(-c2cccc(C(F)(F)F)c2)c1 [Compound D-40, N-(3-(chloromethyl)-1,2,4-thiadiazol-5-yl)-5-(3-(trifluoromethyl)phenyl)thiophene-3-carboxamide]
5 | 35.9 | COc1cccc(-c2cc(C(=O)Nc3nc(CC(C)=C(F)F)ns3)oc2C)c1 [Compound F-15, N-(3-(3,3-difluoro-2-methylallyl)-1,2,4-thiadiazol-5-yl)-4-(3-methoxyphenyl)-5-methyl-furan-2-carboxamide]
6 | 5.77 | Cc1sc(-c2cccc(C#N)c2)cc1C(=O)Nc1nc(CC(C)N2CCCCC2)ns1 (stereo not drawn) [Compound C-12, 5-(3-Cyanophenyl)-2-methyl-N-(3-(2-(piperidin-1-yl)propyl)-1,2,4-thiadiazol-5-yl)thiophene-3-carboxamide]
7 | 12.7 | CC(Cc1nsc(NC(=O)c2cc(-c3cccc(C(F)(F)F)c3)sc2C)n1)=C(F)F [Compound C-30, N-(3-(3,3-difluoro-2-methylallyl)-1,2,4-thiadiazol-5-yl)-2-methyl-5-(3-(trifluoromethyl)phenyl)thiophene-3-carboxamide]
8 | 1.46 | CC(Cc1nsc(NC(=O)c2cc(-c3cccc(C(F)(F)F)c3)oc2C(F)(F)F)n1)=C(F)F [Compound E-22, N-(3-(3,3-difluoro-2-methylallyl)-1,2,4-thiadiazol-5-yl)-2-(trifluoromethyl)-5-(3-(trifluoromethyl)phenyl) furan-3-carboxamide]
9 | 12.6 | CC(=O)Cc1nsc(NC(=O)c2cc(-c3cccc(OC(F)F)c3)c(C)o2)n1 [Compound F-5, 4-(3-(Difluoromethoxy)phenyl)-5-methyl-N-(3-(2-oxopropyl)-1,2,4-thiadiazol-5-yl)furan-2-carboxamide]
10 | 2.51 | Cc1sc(-c2cccc(C(F)(F)F)c2)cc1C(=O)Nc1nc(CC(C)(O)C(F)(F)F)ns1 (stereo not drawn) [Compound C-25, 2-Methyl-N-(3-(3,3,3-trifluoro-2-hydroxy-2-methylpropyl)-1,2,4-thiadiazol-5-yl)-5-(3-(trifluoromethyl)phenyl)thiophene-3-carboxamide]
11 | 39.2 | CN1CCN(Cc2nsc(NC(=O)c3cc(-c4cccc(OC(F)F)c4)co3)n2)CC1 [Compound G-28, 4-(3-(Difluoromethoxy)phenyl)-N-(3-((4-methylpiperazin-1-yl)methyl)-1,2,4-thiadiazol-5-yl)furan-2-carboxamide]
12 | 15.3 | CC(Cc1nsc(NC(=O)c2cc(-c3cccc(OC(F)F)c3)co2)n1)N1CCN(C)CC1 (stereo not drawn) [Compound G-10, 4-(3-(Difluoromethoxy)phenyl)-N-(3-(2-(4-methylpiperazin-1-yl)propyl)-1,2,4-thiadiazol-5-yl)furan-2-carboxamide]
13 | 31.9 | COc1cccc(-c2cc(C(=O)Nc3nc(CN4CCOCC4)ns3)oc2C)c1 [Compound F-26, 4-(3-Methoxyphenyl)-5-methyl-N-(3-(morpholinomethyl)-1,2,4-thiadiazol-5-yl)furan-2-carboxamide]
14 | 37.2 | COc1cccc(-c2cc(C(=O)Nc3nc(CC(C)N4CCCCC4)ns3)cs2)c1 [Compound D-14, 5-(3-Methoxyphenyl)-N-(3-(2-(piperidin-1-yl)propyl)-1,2,4-thiadiazol-5-yl)thiophene-3-carboxamide]
15 | 24.1 | COc1cccc(-c2coc(C(=O)Nc3nc(CC(C)=C(F)F)ns3)c2)c1 [Compound G-15, N-(3-(3,3-difluoro-2-methylallyl)-1,2,4-thiadiazol-5-yl)-4-(3-methoxyphenyl)furan-2-carboxamide]
16 | 17.9 | Cc1oc(C(=O)Nc2nc(CC(C)N3CCCC3)ns2)cc1-c1cccc(C(F)(F)F)c1 (stereo not drawn) [Compound F-6]

Further lines, the molecule ahead of its results:

Row | Compound | IC50 [µM]
17 | Cc1oc(-c2cccc(C(F)(F)F)c2)cc1C(=O)Nc1nc(CN2CCN(C)CC2)ns1 [Compound A-111, 2-Methyl-N-(3-((4-methylpiperazin-1-yl)methyl)-1,2,4-thiadiazol-5-yl)-5-(3-(trifluoro-methyl)phenyl)furan-3-carboxamide] | 0.57
18 | Cc1oc(-c2cccc(C#N)c2)cc1C(=O)Nc1nc(CCl)ns1 [Compound A-112, N-(3-(chloromethyl)-1,2,4-thiadiazol-5-yl)-5-(3-cyanophenyl)-2-methylfuran-3-carboxamide] | 1.87
19 | CCN(CC)Cc1nsc(NC(=O)c2coc(-c3cccc(OC)c3)c2)n1 [Compound B-50, N-(3-((diethylamino)methyl)-1,2,4-thiadiazol-5-yl)-5-(3-methoxyphenyl)furan-3-carboxamide] | 22.9
20 | O=C(Nc1nc(CN2CCCCC2)ns1)c1coc(-c2cccc(OC(F)F)c2)c1 [Compound B-56, 5-(3-(Difluoromethoxy)phenyl)-N-(3-(piperidin-1-ylmethyl)-1,2,4-thiadiazol-5-yl)furan-3-carboxamide] | 28.3
21 | CC(=O)Cc1nsc(NC(=O)c2coc(-c3cccc(C#N)c3)c2)n1 [Compound B-2, 5-(3-Cyanophenyl)-N-(3-(2-oxopropyl)-1,2,4-thiadiazol-5-yl)furan-3-carboxamide] | 54.9
22 | CC(F)(F)Cc1nsc(NC(=O)c2coc(-c3cccc(C(F)(F)F)c3)c2)n1 [Compound B-35, N-(3-(2,2-difluoropropyl)-1,2,4-thiadiazol-5-yl)-5-(3-(trifluoromethyl)phenyl)furan-3-carboxamide] | 14.5
23 | Cc1oc(-c2cccc(OC(F)F)c2)cc1C(=O)Nc1nc(CN2CCCCC2)ns1 [Compound A-129, 5-(3-(Difluoromethoxy)phenyl)-2-methyl-N-(3-(piperidin-1-ylmethyl)-1,2,4-thiadiazol-5-yl)furan-3-carboxamide] | 0.06
24 | CC(Cc1nsc(NC(=O)c2coc(-c3cccc(C#N)c3)c2)n1)N1CCCC1 (stereo not drawn) [Compound B-12, 5-(3-Cyanophenyl)-N-(3-(2-(pyrrolidin-1-yl)propyl)-1,2,4-thiadiazol-5-yl)furan-3-carboxamide] | 23.3
25 | CCN(CC)C(C)Cc1nsc(NC(=O)c2cc(-c3cccc(C(F)(F)F)c3)oc2C)n1 (stereo not drawn) [Compound A-39, N-(3-(2-(diethylamino)propyl)-1,2,4-thiadiazol-5-yl)-2-methyl-5-(3-(trifluoromethyl)phenyl)furan-3-carboxamide] | 0.12
26 | CC(=O)Cc1nsc(NC(=O)c2cc(-c3cccc(C(N)=O)c3)oc2C)n1 [Compound A-28, 5-(3-Carbamoylphenyl)-2-methyl-N-(3-(2-oxopropyl)-1,2,4-thiadiazol-5-yl)furan-3-carboxamide] | 1.03
27 | CCOc1cccc(-c2cc(C(=O)Nc3nc(CC(C)=O)ns3)c(C)o2)c1 [Compound A-6, 5-(3-Ethoxyphenyl)-2-methyl-N-(3-(2-oxopropyl)-1,2,4-thiadiazol-5-yl)furan-3-carboxamide] | 0.13
28 | Cc1oc(-c2cccc(C(F)(F)F)c2)cc1C(=O)Nc1nc(CC(C)(F)F)ns1 [Compound A-85, N-(3-(2,2-difluoropropyl)-1,2,4-thiadiazol-5-yl)-2-methyl-5-(3-(trifluoromethyl)phenyl) furan-3-carboxamide] | 0.77
29 | CC(=O)Cc1nsc(NC(=O)c2cc(-c3cccc(Cl)c3)oc2C)n1 [Compound A-8, 5-(3-Chlorophenyl)-2-methyl-N-(3-(2-oxopropyl)-1,2,4-thiadiazol-5-yl)furan-3-carboxamide] | 1.71
30 | CC(=O)Cc1nsc(NC(=O)c2coc(-c3cccc(C(F)(F)F)c3)c2)n1 [Compound B-1, N-(3-(2-oxopropyl)-1,2,4-thiadiazol-5-yl)-5-(3-(trifluoromethyl)phenyl)furan-3-carboxamide] | 18.6
